Results taken from patent US20130072459A1, “PHARMACEUTICAL COMPOSITION FOR THE PREVENTION OR THE TREATMENT OF NON-ALCOHOLIC FATTY LIVER DISEASE AND THE METHOD FOR PREVENTION OR TREATMENT OF NON-ALCOHOLIC FATTY LIVER DISEASE USING THE SAME” (priority 2010, published 2013).

Tested on: high fat diet-induced simple steatosis
Experiment: Therapeutic effects on high fat diet-induced simple steatosis in rats
Type: in vivo, Wistar rats
Method: 6-week old male rats (Wistar rats) were stabilized and then divided into 2 groups. Animal groups were respectively given a standard diet containing 10% fat (trade name: D12450B, manufactured by Research Diets) and a high fat diet containing 60% fat (trade name: D12492, manufactured by Research Diets) for 24 weeks. […] In order to supply 10 mg/kg which is a daily target dose of tartrate of Compound 1, a diet was formulated by mixing a high fat diet and 0.03% by weight of tartrate of Compound 1. 24 weeks after a supply of each diet, animals were divided into a high fat diet-fed group (n=8), a group fed with a high fat diet+0.03% by weight of tartrate of Compound 1 (n=8), and a standard diet-fed group (n=8), followed by feeding for another 14 weeks. Then, animals were dissected and sera were separated. Then, serum ALT levels (alanine aminotransferase), GPT, (glutamic pyruvate transaminase) were measured using a blood analyzer (FIG. 4). The excised liver was homogenized in a 5(v/v) % Triton-X solution, and a triglyceride working reagent [which was prepared by mixing a free glycerol reagent (F6428, Sigma) and a triglyceride reagent (T2449, Sigma) in a ratio of 4:1(v/v)] was added thereto, followed by measurement of an absorbance at 540 nm to determine the content of triglyceride (FIG. 5). In addition, in order to observe histological fat distribution, a portion of the excised liver was fixed in a 10(v/v) % formalin solution and then a tissue sample was prepared, followed by hematoxylin & eosin(HE) staining and photographing using an image analysis program (computerized image analysis) (FIG. 6, the violet-stained portion represents a normal liver tissue, and white portion represents lipid droplets). Thereafter, an area of lipid droplets/unit area of a sample was calculated (FIG. 7).

[1] = high fat diet + 0.03% drug for 14 weeks, vs high fat diet-fed group

CC(C)(C)OC[C@@H]1C(=O)NCCN1C(=O)C[C@H](N)Cc1cc(F)c(F)cc1F [tartrate of Compound 1, (R)-4-[(R)-3-amino-4-(2,4,5-trifluorophenyl)-butanoyl]-3-(t-butoxymethyl)piperazin-2-one]
significant decrease: serum alanine aminotransferase (ALT), result in words (high fat diet 24 weeks then high fat diet + 0.03% drug (target 10 mg/kg/day) for 14 weeks) | hepatic triglyceride content in hepatic triglyceride analysis, result in words [1] | hepatic triglyceride content in histological analysis (area of lipid droplets/unit area), result in words [1]
